Results reported in patent US5650154A (priority 1989, dated 1997).

System: polyclonal serum raised against the native antigen
Test: Reaction of peptide with polyclonal serum raised against the native antigen
Format: binding, rabbits
Conditions: rabbit serum

ELVALSNSITAQQMAMMAZASPA [Peptide (b), Tryptic peptide of the H. contortus antigen purified by HPLC]
reaction with polyclonal serum raised against the native antigen: reacts strongly
